“Also recorded” adds a separate entry of the source.
Legend:
[1] = test system: human umbilical cord vein derived vascular endothelial cells (HUVECs); assay: Cell viability of young and aged HUVECs (ApoTox-Glo Triplex Assay); assay type: cell-based; settings: 48 hours, 2DG 1 mM, 3HB 20 mM, AIC 200 μM; for selectivity of the effects for aged versus young cells: aged (15 passages or more) vs young (less than 10 passages) HUVECs, viability and apoptosis; for cell viability: young and aged HUVECs, relative to Con
Protocol: (§1) Specifically, human umbilical cord vein derived vascular endothelial cells (HUVECs, Lonza) were cultured in a prescribed culture medium (EBM-2/EGM-2, Lonza). Less than 10 passages were defined as young and 15 passages or more were defined as aged. For young or aged HUVEC, 2DG, 3HB, and AIC were added to the culture solutions at the concentrations of 1 mM, 20 mM, and 200 μM, respectively, and the cells were harvested after 48 hours. The collected cells were evaluated for viability by fluorescence/absorbance measurements using ApoTox-Glo™ Triplex Assay kit (Promega). Dead cells were stained using AnnexinV (Becton & Dickinson (BD)), PI (Sigma-Aldrich), and Hoechst 33258 (Invitrogen), and the percentage of apoptosis-induced cells was quantified by FACS analysis.

[2] = test system: human umbilical cord vein derived vascular endothelial cells (HUVECs); assay: Apoptosis induction in young and aged HUVECs (AnnexinV/PI/Hoechst 33258, FACS analysis); assay type: cell-based; settings: 48 hours, relative to Con, 2DG 1 mM, 3HB 20 mM, AIC 200 μM
Protocol: as §1

[3] = test system: p21 (Cdkn1a) and p16 (Cdkn2a) mRNA; assay: Quantitative RT-PCR of senescence markers p21 (Cdkn1a) and p16 (Cdkn2a) in visceral adipose tissue of obesity model mice; assay type: in vivo, mice (C57BL/6NCr); settings: canagliflozin 0.03% w/w in diet, 3 days and 1 week, relative to Actb
Protocol: (§2) Four-week-old wild-type mice (C57BL/6NCr) were fed with high fat diets for 8 weeks to prepare diet-induced obesity model mice. Then, canagliflozin, an SGLT2 inhibitor, was administered orally to the prepared obesity model mice by mixing with the diet at the concentration of 0.03% w/w (hereinafter referred to as “high fat diet+SGLT2i group”).
(§3) Specifically, RNA was extracted with RNA-Bee™ (Tel-Test) from a portion of the visceral adipose tissue (epididymal adipose tissue) collected from the mice of each group 3 days and 1 week after starting administration of canagliflozin. The collected RNA was quantified by Nanodrop (Thermo), and cDNA was then prepared from 1 μg of the RNA using QuantiTect Reverse Transcription Kit (Quiagen). This cDNA was used to quantify the relative expression of mRNAs of p21 and p16 using Actb as the housekeeping gene by quantitative RT-PCR method using Light Cycler 480 (Roche), and TaqMan Universal Probe Library and the Light Cycler Master (Roche). The primers for each RNA were designed using the Probe finder on the Roche website.

[4] = test system: senescent cells in blood vessels; assay: Senescence-associated β-galactosidase staining of blood vessels of atherosclerotic model mice; assay type: in vivo, ApoE-deficient (ApoE−/−) mice; settings: ApoE−/− mice on high fat diet 12 weeks, canagliflozin 0.03% w/w in diet, 2 weeks, vs HFD group
From the text: (§4) Then, the senescent cells in the visceral adipose tissues collected from the mice of each group were detected according to the conventional method (Dimri, G. P. et al., Proc. Natl. Acad. Sci. U.S.A., 92(20), 9363-9367, 1995). Specifically, each of the visceral adipose tissues was stained with senescence-associated acidic β-galactosidase and the senescent cells were detected. The senescent cells were stained blue by this staining.
Four-week-old ApoE-deficient (ApoE^−/−) mice were fed with high fat diets for 12 weeks, followed by oral administration of canagliflozin, an SGLT2 inhibitor, mixed in the diet at the concentration of 0.03% w/w (hereinafter referred to as “HFD+SGLT2i group”). For comparison, the same mice as described above with the exception of not administering canagliflozin (hereinafter referred to as “HFD group”) were prepared. The blood vessels (from the aorta base to the descending aorta on the diaphragm) were collected from the mice of each group 2 weeks after starting administration of canagliflozin. Subsequently, the senescent cells in blood vessels collected from the mice of each group were detected according to the method described in Experimental Example 2. The stainability was measured at a part ranging from the ascending aorta to the branch of the arch left subclavian artery.

[5] = test system: Hutchinson-Gilford progeria model mice (Zmpste24-deficient mice); assay: General condition of Hutchinson-Gilford progeria model mice; assay type: in vivo; settings: canagliflozin 0.03% w/w in diet, 3 to 4 weeks, KO+SGLT2i vs KO
From the text: Canagliflozin, an SGLT2 inhibitor, mixed in a diet at the concentration of 0.03% w/w was orally administered to 13-week-old Hutchinson-Gilford progeria model mice (Zmpste24-deficient mice), and the general condition of the mice was observed.

[6] = test system: senescent cells in the visceral adipose tissues; assay: Senescence-associated acidic β-galactosidase staining of visceral adipose tissue of diet-induced obesity model mice; assay type: in vivo, mice (C57BL/6NCr); settings: canagliflozin 0.03% w/w in diet, one week
Protocol: as §2
For comparison, four-week-old wild-type mice (C57BL/6NCr) fed with normal diets for 8 weeks (hereinafter referred as “normal diet group”) and obesity model mice prepared in the same manner as described above with the exception of not administering canagliflozin (hereinafter referred to as “high fat diet group”) were prepared.
The visceral adipose tissues (epididymal adipose tissues) were collected from the mice of each group one week after starting administration of canagliflozin in Experimental Example 1.
as §4

p53 protein = assay: Western blotting of p53 protein in visceral adipose tissue of obesity model mice; assay type: in vivo, mice (C57BL/6NCr); settings: canagliflozin 0.03% w/w in diet, one week
Protocol: as §2
Specifically, expression level of p53 protein was measured by Western blotting using a portion of the visceral adipose tissues collected in Experimental Example 2. Type 1C12 (CST) was used as the anti-p53 antibody. Anti-β-actin antibody (type 13E5, CST) was used as the antibody to detect β-actin protein, which is the loading control.

[7] = test system: p16 and p21 mRNA in heart, kidney, skeletal muscle (quadriceps), and brown adipose tissue; assay: Quantitative RT-PCR of p16 and p21 in organs other than visceral adipose tissue of obesity model mice; assay type: in vivo, mice (C57BL/6NCr); settings: SGLT2 inhibitor administration for 7 days
Protocol: as §2, §3
Specifically, mRNA expression levels of p16 and p21 in heart, kidney, skeletal muscle (quadriceps), and brown adipose tissue, which were collected from the same mice when the visceral adipose tissue was collected in Experimental Example 2, were quantified using the same methods described in Experimental Example 4.

visceral adipose tissue = assay: Adipose inflammation and oxidative stress in adipose tissue of obesity model mice (HE, DHE, F4/80 staining, CCL2 and TNFα RT-PCR); assay type: in vivo, mice (C57BL/6NCr); settings: visceral fat
Protocol: as §2
Specifically, a portion of the visceral fat collected in Experimental Example 4 was immersed and fixed with 10% Mildform (Wako) for at least 24 hours. The sample was dehydrated and embedded in paraffin, and sliced into 5-μm thick. The slices were stuck on slides and subjected to hematoxylin-eosin (HE) staining, dihydroethidium (DHE) staining, or immunofluorescent staining with F4/80 antibody. The stained slices were imaged using Biorevo (Keyence Co.), or where necessary, using confocal microscopy. For the HE staining, the images were photographed at 400× magnification, and the mean number of the crown like structures per one 40× field of view was counted as well. For the DHE staining, the percentage (%) of a red color value equal to or greater than a certain value relative to a randomly photographed 400× image per one field of view was measured using ImageJ. For the Immunofluorescent staining with F4/80 antibody, percentage (%) of F4/80 positive cells per nucleus in one field of view was measured. In addition, mRNAs of CCL2 and TNFα were quantified by quantitative RT-PCR method according to the method described in Experimental Example 4.

[8] = Metabolome analysis of blood and various tissues of mice after short-term administration of the SGLT2 inhibitor; assay type: in vivo
From the text: It is known that SGLT2 inhibition accelerates fatty acid oxidation and suppresses glycolysis, and that acceleration of glycolysis is observed in senescent cells. Then, whether 3-hydroxybutyrate (hereinafter referred to as “3HB”), AICAR (hereinafter referred to as “AIC”), and 2-deoxyglucose (hereinafter referred to as “2DG”) that has an inhibitory effect on glycolysis have effects to induce apoptosis of senescent cells were examined.

[9] = SGLT2 inhibitor administration for 3 days and 7 days
[10] = SGLT2 inhibitor administration for 7 days

CC(O)CC(=O)O (stereo not shown) [3HB, 3-hydroxybutyrate]
selectivity of the effects for aged versus young cells [1]: in an aged cell-selective manner
cell viability [1]: decrease of the cell viability
apoptosis induction (percentage of apoptotic cells) [2]: increase the apoptosis induction

O=CC[C@@H](O)[C@H](O)[C@H](O)CO [2DG, 2-deoxyglucose]
selectivity of the effects for aged versus young cells [1]: in an aged cell-selective manner
cell viability [1]: decrease of the cell viability
apoptosis induction (percentage of apoptotic cells) [2]: increase the apoptosis induction

Cc1ccc([C@@H]2O[C@H](CO)[C@@H](O)[C@H](O)[C@H]2O)cc1Cc1ccc(-c2ccc(F)cc2)s1 [canagliflozin, (1S)-1,5-Anhydro-1-C(-3{[5-(4-fluorophenyl)thiophen-2-yl]methyl}-4-methylphenyl)-D-glucitol]
p16 mRNA levels in visceral adipose tissue [3]: a similar trend was observed for p16
p21 mRNA levels in visceral adipose tissue [3]: significantly suppressed the increase of p21 mRNA levels
senescent cells in blood vessels (senescence-related β-galactosidase stainability) [4]: decreased the senescent cells stained blue
deterioration of hair consistency and alopecia [5]: reduced
inflammation at the visceral fat ([6]; high fat diet+SGLT2i group mice): alleviation of inflammation at the visceral fat was also observed
senescent cells in the visceral adipose tissue (senescence-associated acidic β-galactosidase staining) ([6]; obesity model mice, oral, vs high fat diet group): significantly decreased the senescent cells in the visceral adipose tissue
expression level of p53 in the visceral adipose tissue (Western blotting) (p53 protein): significantly lowered
mRNA levels of p16 in the brown adipose tissue [7]: tended to decrease
mRNA levels of p16 in the kidney [7]: tended to decrease
mRNA levels of p21 in the heart [7]: tended to decrease
mRNA levels of p21 in the kidney [7]: tended to decrease
mRNA levels of p21 in the skeletal muscle [7]: tended to decrease
mRNA expression of CCL2 (visceral adipose tissue; [9]): tended to decrease
mRNA expression of TNFα (visceral adipose tissue; [9]): tended to decrease
macrophage infiltration into adipose tissue (immunofluorescent staining with F4/80) (visceral adipose tissue; [9]): macrophage infiltration into adipose tissue remained
infiltration of macrophages and CLS structures (HE staining, number of CLS) (visceral adipose tissue; [10]): significantly decreased
oxidative stress (DHE staining, DHE positive area) (visceral adipose tissue; [10]): significantly suppressed
AICAR in blood [8]: significant increase of AICAR
ketone body concentration in blood and each tissue [8]: increase of ketone body concentration in blood and each tissue

NC(=O)c1ncn([C@@H]2O[C@H](CO)[C@@H](O)[C@H]2O)c1N [AIC, 5-Aminoimidazole-4-carboxamide-1-β-D-ribofuranoside]
selectivity of the effects for aged versus young cells [1]: not in an aged cell-selective manner; also recorded: more potent effects in the young cells
cell viability [1]: decreased cell viability
apoptosis induction (percentage of apoptotic cells) [2]: increased apoptosis induction
